From patent US20200037609A1, “HERBICIDAL COMPOSITIONS AND METHODS OF USE THEREOF” (The Regents of the University of California, priority 2017, published 2020)
“Also recorded” adds a separate entry of the source.

Key:
green bean seedlings = assay: Agar-based plant growth inhibition assay on MS media; type: in vivo; details: 50 μM aspterric acid, day 3 and day 7
Procedure: Sterile green bean seedlings were plated on MS media containing 50 μM aspterric acid and 1% DMSO (to increase the solubility of aspterric acid) on day 0. MS media containing only 1% DMSO was used as a control. Growth was assessed on day 3 and day 7.

[1] = tested on: soil-grown Arabidopsis thaliana Col-0 ecotype plants; assay: Herbicidal spray experiments with 1 mM aspterric acid in solvent formulations; type: in vivo
Procedure: Aspterric acid was dissolved in the following solvent formulations at a final concentration of 1 mM: (1) 0.5% silwet L-77 and 1% DMSO (floral dip formulation), (2) 2% EtOH, 1% corn oil, and 0.1% tween 80, and (3) 2% EtOH and 0.05% Finale (Finale formulation, contains a final concentration of […]).
For spray treatments with aspterric acid in the various formulations described above, Arabidopsis thaliana Col-0 ecotype plants were grown in soil under long day conditions (16 hours of light followed by 8 hours of dark per day) at 23° C. using cool-white fluorescence bulbs as the light source. Ten-day old seedlings were sprayed with 1 mM aspterric acid dissolved in formulation (1), (2), or (3) as described above. Spray application with the various respective formulations was repeated every 2 days.

[2] = tested on: glufosinate resistant A. thaliana; assay: Plant growth inhibition assay by spraying (250 μM AA in Finale + ethanol); type: in vivo, Arabidopsis thaliana; details: glufosinate resistant plants without astD, listed as AA
Procedure: Plant growth inhibition assay by spraying. AA was firstly dissolved in ethanol and then added to solvent (0.06 g/L Finale® Bayer Inc.+20 g/L EtOH). The control plants were treated with solvent containing ethanol only. A. thaliana that are resistant to glufosinate (containing the bar gene) were grown under long day conditions (16/8 h light/dark) using cool-white fluorescence bulbs as the light resource at 23° C. Spraying treatments began when the seeds germinated, and was repeated once every two days with approximately 0.4 mL AA solution per time per pot.

[3] = tested on: Arabidopsis thaliana Col-0 flowers; assay: Cross experiment, AA as chemical hybridization agent; type: in vivo; details: 250 μM AA; for offspring obtained: listed as AA
Procedure: Flowers of Arabidopsis thaliana Col-0 plants were treated with aspterric acid. The treated flowers that were missing all six fertile stamens were selected as the female parent in a cross with a male parent of known genetic identity. Non-treated Arabidopsis plants containing a BASTA resistant gene were used as male parent to donate pollen to the plants where the flowers were missing all six fertile stamens. 2-week old F1 progeny resulting from the cross were treated with Finale (11.3% Glufosinate-ammonium) at a 1:2000 dilution.
To make male sterile A. thaliana, AA was added to chemical hybridization agent (CHA) formulation (250 μM AA, 2% ethanol, 0.1% Tween-80, 1% corn oil in water), which has less inhibition effect on the growth of A. thaliana. Flowers of the AA treated Col-0 were selected as the female parent. […] 2-week old F1 progeny resulting from the cross were treated by Finale (11.3% glufosinate-ammonium) at 1:2000 dilution.

[4] = female AA treated wild type x male un-treated glufosinate resistant plant

CC(C)=C1CC[C@]23CO[C@H](C2)[C@@](O)(C(=O)O)CC[C@@H]13 [aspterric acid]
growth of green bean seedlings on MS media (green bean seedlings): significant vegetative growth inhibition | growth after spray, formulation (1) ([1]; 1 mM in 0.5% silwet L-77 and 1% DMSO, every 2 days, 18 days after first spray): showed growth inhibition | growth after spray, formulation (3) ([1]; 1 mM in 2% EtOH and 0.05% Finale, glufosinate-resistant plants, 18 days after first spray): significant growth inhibition | growth after spray, formulation (2) ([1]; 1 mM in 2% EtOH, 1% corn oil, 0.1% tween 80, every 2 days, 17 days after first spray): showed growth inhibition | plant growth after spray of AA in Finale [2]: severely inhibited plant growth; also recorded: strong growth inhibitory phenotype | offspring obtained ([3]; female AA treated wild type x male AA treated glufosinate resistant plant): No offspring was obtained and No | inherit resistance [3, 4]: Yes | offspring obtained [3, 4]: Offspring was obtained and Yes
